Paper PMC11678245, “The Molecular Basis of the Intrinsic and Acquired Resistance to Azole Antifungals in Aspergillus fumigatus” (Journal of Fungi, 2024)
Where “and” joins values, the source holds several entries; their conditions need not be identical. Equal values may be shown once. Read-outs that look alike come from different tables or passages of the source.

Legend:
[1] = system: S. cerevisiae strain ADLS overexpressing ScCYP51-6×His; assay: MIC80 susceptibility, strain ADLS; assay type: cell-based, Saccharomyces cerevisiae; details: Saccharomyces cerevisiae; Table 2; strain ADLS; SD pH 6.8, 48 h, 30 °C; ± SD; read-out: MIC80
Protocol: (§1) The susceptibilities of S. cerevisiae strains to antifungal drugs were determined as minimum growth inhibitory concentration (MIC) values in 200 μL SD pH 6.8 [24]. Serial 2-fold dilutions of 100 μL of azole or control drugs in SD pH 6.8 were prepared in a 96-well microtiter plate. A portion of a 2 mL SD pH 6.8 overnight culture of the test strain was inoculated into 3 mL fresh SD pH 6.8 and incubated for 4 to 6 h at 30 °C to generate logarithmic-phase cells. These cells were then diluted with fresh SD pH 6.8 to OD600nm = 0.01 (3 × 10^4 CFU), and 100 μL of this cell suspension was added to microtiter plate wells. Cell growth after 48 h incubation at 30 °C with shaking at 200 rpm was determined at 600 nm using a BioTek™ Synergy™ 2 multi-Mode microplate reader controlled using Gen5™ Data Analysis Software version 3.16.10 (BioTek Instruments, Winooski, VT, USA). MIC80 values (80% growth inhibition in the presence of the test drug compared with the untreated control) for each yeast construct were determined as technical triplicates repeated three times for three separate clones.

[2] = system: S. cerevisiae strain A (AfCyp51A-6×His, native ScCyp51 retained); assay: MIC80 susceptibility, strain A; assay type: cell-based; details: Saccharomyces cerevisiae, Table 2, SD pH 6.8, 48 h, 30 °C
Protocol: as §1

[3] = system: S. cerevisiae strain ARE Y121F (AfCyp51A-6×His Y121F, AfCprA2, AfErg6-FLAG); assay: MIC80 susceptibility, strain Y121F; assay type: cell-based, Saccharomyces cerevisiae; details: Saccharomyces cerevisiae, ± SD, read-out: MIC80
Protocol: as §1

[4] = system: S. cerevisiae strain ADΔΔ (native ScCYP51); assay: MIC80 susceptibility, host strain ADΔΔ; assay type: cell-based; details: Saccharomyces cerevisiae, Table 2, SD pH 6.8, 48 h, 30 °C
Protocol: as §1

[5] = system: S. cerevisiae strain BR (AfCyp51B-6×His, AfCprA2-6×His); assay: MIC80 susceptibility, strain BR; assay type: cell-based; details: Saccharomyces cerevisiae; Table 2; strain BR; SD pH 6.8, 48 h, 30 °C; ± SD; read-out: MIC80
Protocol: as §1

[6] = system: S. cerevisiae strain BRE (AfCyp51B-6×His, AfCprA2, AfErg6-FLAG); assay: MIC80 susceptibility, strain BRE; assay type: cell-based, Saccharomyces cerevisiae; details: Saccharomyces cerevisiae, strain BRE, ± SD, read-out: MIC80
Protocol: as §1

[7] = system: S. cerevisiae strain ARE T289A (AfCyp51A-6×His T289A, AfCprA2, AfErg6-FLAG); assay: MIC80 susceptibility, strain T289A; assay type: cell-based, Saccharomyces cerevisiae; details: for MIC80: Saccharomyces cerevisiae, ± SD, read-out: MIC80
Protocol: as §1

[8] = target: AfCYP51A-6×His (Aspergillus fumigatus, UniProt Q4WNT5); assay: Type II binding of azole drugs (difference spectra); details: AfCYP51A
Protocol: (§2) The concentration of AfCYP51A and AfCYP51B, purified using Ni-NTA affinity chromatography and used for the spectrophotometric type I and type II binding assays, was calculated using an extinction co-efficient of λ417nm = 117 mM^−1 cm^−1 applied to the absolute absorption spectrum of the preparations. In addition, the amount of “active” cytochrome P450 enzyme was determined using the carbon monoxide (CO) binding spectra of these preparations.
(§3) Type II binding difference spectra were obtained using 1 μM of affinity-purified CYP51 enzymes. VCZ, PCZ, VT-1161, DCZ, and MCF working solutions were prepared in DMSO, while FLC was prepared in Milli-Q water. Azole drugs were added to the sample cuvette, and corresponding amounts of DMSO or Milli-Q water were added to the reference cuvette. Drug binding curves were plotted using the difference spectrum peak and trough detected in the range of 410–425 nm. Dissociation constants (Kd) were determined by nonlinear regression (Levenberg–Marquardt algorithm) of the difference in absorbance between the peak and trough against the azole concentration using a rearrangement of the Morrison equation or the Hill equation [7]. GraphPad Prism 9.2.0 software was used to identify the best fit for the data.

[9] = target: T1, AfCYP51B-6×His (Aspergillus fumigatus, UniProt E9QY26); assay: as above; details: for ΔAmax (type II binding) / Kd: Hill equation; for Hill Number / Kd: type II binding
T1 sequence (E9QY26 1-524): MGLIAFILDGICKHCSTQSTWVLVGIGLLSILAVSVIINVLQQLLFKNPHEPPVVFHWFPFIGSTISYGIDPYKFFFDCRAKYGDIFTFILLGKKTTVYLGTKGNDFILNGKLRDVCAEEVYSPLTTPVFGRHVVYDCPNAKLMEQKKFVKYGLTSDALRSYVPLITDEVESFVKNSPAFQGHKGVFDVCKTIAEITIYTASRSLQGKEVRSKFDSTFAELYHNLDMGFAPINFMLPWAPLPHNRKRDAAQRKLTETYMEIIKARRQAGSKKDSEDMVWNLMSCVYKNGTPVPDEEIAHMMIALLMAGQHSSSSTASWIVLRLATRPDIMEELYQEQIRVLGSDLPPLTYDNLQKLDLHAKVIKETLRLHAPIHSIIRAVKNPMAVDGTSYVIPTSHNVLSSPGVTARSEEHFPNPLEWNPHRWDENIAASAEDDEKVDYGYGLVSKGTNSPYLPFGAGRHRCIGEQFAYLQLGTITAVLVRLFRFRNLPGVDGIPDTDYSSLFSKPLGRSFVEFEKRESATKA
Protocol: as §2, §3

[10] = system: S. cerevisiae strain ARE Y121F T289A (AfCyp51A-6×His Y121F T289A, AfCprA2, AfErg6-FLAG); assay: MIC80 susceptibility, strain Y121F T289A; assay type: cell-based, Saccharomyces cerevisiae; details: Saccharomyces cerevisiae, ± SD, read-out: MIC80
Protocol: as §1

[11] = system: S. cerevisiae strain ARE (AfCyp51A-6×His, AfCprA2, AfErg6-FLAG); assay: MIC80 susceptibility, strain ARE; assay type: cell-based, Saccharomyces cerevisiae; details: Saccharomyces cerevisiae, strain ARE, ± SD, read-out: MIC80
Protocol: as §1

[12] = system: S. cerevisiae strain ARE I301T (AfCyp51A-6×His I301T, AfCprA2, AfErg6-FLAG); assay: MIC80 susceptibility, strain I301T; assay type: cell-based, Saccharomyces cerevisiae; details: Saccharomyces cerevisiae, ± SD, read-out: MIC80
Protocol: as §1

[13] = system: S. cerevisiae strain B (AfCyp51B-6×His, native ScCyp51 retained); assay: MIC80 susceptibility, strain B; assay type: cell-based; details: Saccharomyces cerevisiae, Table 2, SD pH 6.8, 48 h, 30 °C
Protocol: as §1

[14] = system: S. cerevisiae strain AR (AfCyp51A-6×His, AfCprA2-6×His); assay: MIC80 susceptibility, strain AR; assay type: cell-based, Saccharomyces cerevisiae
Protocol: as §1

[15] = Table 2, strain Y121F, SD pH 6.8, 48 h, 30 °C
[16] = Table 2, SD pH 6.8, 48 h, 30 °C
[17] = 48 h, pH 6.8, Table 2, strain T289A, SD pH 6.8, 48 h, 30 °C
[18] = Table 2, strain Y121F T289A, SD pH 6.8, 48 h, 30 °C
[19] = 48 h, pH 6.8, Table 2, strain I301T, SD pH 6.8, 48 h, 30 °C

Sequence of AfCYP51A-6×His (Q4WNT5 whole entry): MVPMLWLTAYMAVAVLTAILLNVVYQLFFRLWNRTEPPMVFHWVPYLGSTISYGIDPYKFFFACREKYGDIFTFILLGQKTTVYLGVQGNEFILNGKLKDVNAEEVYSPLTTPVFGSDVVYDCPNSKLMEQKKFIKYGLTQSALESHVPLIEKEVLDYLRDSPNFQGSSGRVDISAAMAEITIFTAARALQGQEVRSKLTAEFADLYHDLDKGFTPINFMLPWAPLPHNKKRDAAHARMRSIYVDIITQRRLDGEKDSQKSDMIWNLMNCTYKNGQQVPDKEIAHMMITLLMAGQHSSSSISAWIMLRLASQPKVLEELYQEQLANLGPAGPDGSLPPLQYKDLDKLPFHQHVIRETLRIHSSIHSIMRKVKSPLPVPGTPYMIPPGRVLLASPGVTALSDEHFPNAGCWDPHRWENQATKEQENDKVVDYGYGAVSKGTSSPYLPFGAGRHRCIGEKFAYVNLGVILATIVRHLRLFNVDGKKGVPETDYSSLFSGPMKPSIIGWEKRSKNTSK

Row | SMILES | MIC80 [2] | MIC80 [3, 15] | MIC80 [4] | MIC80 [6, 16] | MIC80 [7, 17] | λtrough (type II difference spectrum) ([9]; 1 μM enzyme) | ΔAmax (type II binding) ([9]; 1 μM enzyme) | Hill Number [9] | Kd ([9]; 1 μM enzyme) | MIC80 [10, 18] | MIC80 [12, 19] | MIC80 [13] | further results
1 | CC[C@@H]([C@H](C)O)n1ncn(-c2ccc(N3CCN(c4ccc(OC[C@@H]5CO[C@@](Cn6cncn6)(c6ccc(F)cc6F)C5)cc4)CC3)cc2)c1=O [PCZ, posaconazole] | 0.21 ± 0.01 µM | 0.06 ± 0.01 µM | 0.1 ± 0.01 µM | 0.1 ± 0.01 µM | 0.06 µM | 388 nm | 0.10 | 1.41 | 2100 nM and 2150 nM | 0.11 ± 0.01 µM | 0.09 ± 0.02 µM | 0.25 ± 0.03 µM | MIC80 [1]: 0.29 ± 0.04 µM; MIC80 ([3]; Table 3, strain ARE Y121F): 0.025 ± 0.003 µM; MIC80 [5]: 0.17 ± 0.02 µM; MIC80 ([6]; Table 3): 0.06 ± 0.037 µM; increase in susceptibility of strain T289A compared to strains ARE and ADΔΔ [7]: 40%; MIC80 ([7]; Table 3, strain ARE T289A): 0.043 ± 0.019 µM; λpeak (type II difference spectrum) ([8]; 1 μM enzyme): 423 nm; λtrough (type II difference spectrum) ([8]; 1 μM enzyme): 395 nm; ΔAmax (type II binding) ([8]; 1 μM enzyme, Hill equation): 0.07; Hill Number ([8]; type II binding): 1.35; Kd ([8]; type II binding, 1 μM enzyme, Hill equation): 1700 nM and 1720 nM; MIC80 ([10]; Table 3, strain ARE Y121F T289A): 0.101 ± 0.017 µM; MIC80 ([11]; Table 3): 0.05 ± 0.017 µM; MIC80 ([12]; Table 3, strain ARE I301T): 0.055 ± 0.001 µM; MIC80 ([14]; Saccharomyces cerevisiae, 48 h, pH 6.8): 0.19 ± 0.01 µM; MIC80 ([14]; Table 2, strain AR, SD pH 6.8, 48 h, 30 °C, ± SD): 0.19 ± 0.02 µM
2 | O[C@@](Cn1cnnn1)(c1ccc(F)cc1F)C(F)(F)c1ccc(-c2ccc(OCC(F)(F)F)cc2)cn1 [VT-1161, oteseconazole] | 0.03 µM | 0.53 ± 0.02 µM | 0.01 µM | 0.06 ± 0.01 µM | 0.02 µM | 391 nm | 0.11 | 0.87 | 3230 ± 2500 nM | 1.07 ± 0.05 µM | 0.14 ± 0.04 µM | 0.05 ± 0.01 µM | greater susceptibility (MIC80) of strain T289A compared with strain ARE [7]: 21 fold; λpeak (type II difference spectrum) ([9]; 1 μM enzyme): 423 nm; MIC80 [11, 16]: 0.43 ± 0.05 µM
